Measured values: patent publication US20060276393A1, “Novel compositions for preventing and treating neurodegenerative and blood coagulation disorders” (Sirtris Pharmaceuticals, Inc., priority 2005, published 2006)
Entries after “also recorded” stand apart in the source; their conditions may differ.

How the values were obtained:
recombinant human SIRT1 = target: T1, recombinant human SIRT1 (Homo sapiens, UniProt Q96EB6); test: SIRT1 fluorescent deacetylation assay (p53-382 acetylated peptide); assay type: biochemical; conditions: 25 μM NAD+, 25 μM p53-382 acetylated peptide, compounds at 100 μM
T1 sequence (Q96EB6 1-747): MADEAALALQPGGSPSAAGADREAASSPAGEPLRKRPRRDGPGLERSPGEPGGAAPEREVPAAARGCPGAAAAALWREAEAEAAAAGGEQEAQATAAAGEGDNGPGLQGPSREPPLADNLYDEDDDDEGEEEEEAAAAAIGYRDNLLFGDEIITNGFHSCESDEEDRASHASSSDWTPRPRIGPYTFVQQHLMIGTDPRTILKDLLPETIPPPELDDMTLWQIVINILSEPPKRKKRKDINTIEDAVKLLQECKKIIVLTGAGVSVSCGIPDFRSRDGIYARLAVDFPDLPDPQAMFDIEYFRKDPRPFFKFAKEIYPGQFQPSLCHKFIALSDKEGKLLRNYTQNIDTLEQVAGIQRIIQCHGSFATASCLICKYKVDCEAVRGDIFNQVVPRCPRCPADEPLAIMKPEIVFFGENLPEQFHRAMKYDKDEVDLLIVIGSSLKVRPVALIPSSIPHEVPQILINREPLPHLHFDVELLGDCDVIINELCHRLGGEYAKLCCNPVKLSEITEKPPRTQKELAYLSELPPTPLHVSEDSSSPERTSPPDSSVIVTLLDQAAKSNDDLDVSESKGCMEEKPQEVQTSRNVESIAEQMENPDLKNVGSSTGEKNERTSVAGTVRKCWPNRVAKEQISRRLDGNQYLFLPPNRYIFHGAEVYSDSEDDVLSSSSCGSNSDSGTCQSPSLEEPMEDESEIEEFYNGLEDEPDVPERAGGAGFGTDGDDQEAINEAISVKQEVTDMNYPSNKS
From the text: Lines represent non-linear least-squares fits to the Michaelis-Menten equation. […] Lines represent non-linear least-squares fits to the Michaelis-Menten equation. […] Error bars are standard errors of the mean.
To identify compounds that modulate SIRT1 activity, a number of small molecule libraries were screened using a fluorescent deacetylation assay in 96-well plates^26. The substrate used in the assay was a fluorogenic peptide based on the sequence encompassing the p53-K382 acetylation site, a known target of SIRT1 in vivo^20,21,27. […] The small molecule libraries included analogues of nicotinamide, ε-acetyl lysine, NAD^+, nucleotides, nucleotide analogues and purinergic ligands.
His6-tagged recombinant SIRT1 and GST-tagged recombinant Sir2 were prepared as previously described^26. From 0.1 to 1 μg of SIRT1 and 1.5 μg of Sir2 were used per deacetylation assay (in 50 μl total reaction) as previously described^26.
Themed compound libraries (BIOMOL) were used for primary and secondary screening. Most polyphenol compounds were dissolved at 10 mM in dimethylsulfoxide (DMSO) on the day of the assay. For water soluble compounds and negative controls, 1% v/v DMSO was added to the assay. […] Unless otherwise indicated all initial rate measurements were means of three or more replicates, obtained with single incubation times, at which point 5% or less of the substrate initially present had been deacetylated. Calculation of net fluorescence increases included subtraction of a blank value, which in the case of Sir2 was obtained by omitting the enzyme from the reaction and in the case of SIRT1 by adding an inhibitor (200 μM suramin or 1 mM nicotinamide) to the reaction prior to the acetylated substrate. […] All error bars represent the standard error of the mean.

S. cerevisiae = test: Yeast replicative lifespan; assay type: cell-based; conditions: 10 μM; 2% (w/v) glucose YPD; untreated 100%
Protocol: Average lifespan for wild type, 22.9 generations, quercetin, 23.4; piceatannol. […]
All yeast strains were grown at 30° C. in complete yeast extract/bactopeptone, 2.0% (w/v) glucose (YPD) medium except where stated otherwise. Calorie restriction was induced in 0.5% glucose. Synthetic complete (SC) medium consisted of 1.67% yeast nitrogen base, 2% glucose, 40 mg/litre each of auxotrophic markers. SIR2 was integrated in extra copy and disrupted as described^5. Other strains are described elsewhere^26. For cellular deacetylation assays, HeLa S3 cells were used. U20S osteosarcoma and human embryonic kidney (HEK 293) cells were cultured adherently in Dulbecco's Modified Eagle's Medium (DMEM) containing 10% fetal calf serum (FCS) with 1.0% glutamine and 1.0% penecillin/streptomycin. HEK 293 overexpressing dominant negative SIRT1 H363Y was a gift of R. Frye (U. Pittsburgh).
Lifespan measurements were performed using PSY316AT MATα as previously described^35. All compounds for lifespan analyses were dissolved in 95% ethanol and plates were dried and used within 24 hours. Prior to lifespan analysis, cells were pre-incubated on their respective media for at least 15 hours. Following transfer to a new plate, cells were equilibrated on the medium for a minimum of 4 hours prior to micro-manipulating them. At least 30 cells were examined per experiment and each experiment was performed at least twice. Statistical significance of lifespan differences was determined using the Wilcoxon rank sum test. Differences are stated to be significant when the confidence is higher than 95%.

C. elegans = C. elegans lifespan; assay type: in vivo; conditions: N2 worms, E. coli as food; untreated 100%
Protocol: Thus, the presence of resveratrol in the growth media of C. elegans extends their lifespan.
Bristol N2 (Caenorhabditis Genetics Center) was used as the wild-type strain. The sir-2.1 mutant strain was generated by backcrossing VC199 (sir-2.1(ok434)) to N2 four times. Cultures were grown on standard NGM media and maintained on E. coli strain OP50. For the lifespan assays, synchronized animals were transferred to treatment plates as young adults (2 d after hatching, day 0 of assay), and were transferred to fresh treatment plates every 2 days for the first 6 to 8 days of the assay. […] For some lifespan trials, heat-killed OP50 were used as a food source. OP50 cultures were heated to 65° C. for 30 minutes, then pelleted and resuspended in 1/10 volume in S Basal supplemented with 10 mM MgSO4. In all assays, worms were monitored daily for mortality by gently probing with a platinum pick. Assays were performed at 24° C. To assay worm feeding rates, worms at the indicated stages were placed on treatment plates (no FUdR) for 4-5 hours, then videoed for 1 minute using a Pixelink PL-662 camera. The frame rate was slowed and the pumping rate of the pharynx was counted. To assay fecundity, gravid hermaphrodites (5 per plate, raised from synchronized L1s on normal or treatment plates) were allowed to lay eggs on their respective media for 5 hours, and the total number of eggs was counted.

[1] = Solution stability from SIRT1 fold-stimulation of aged stock solutions; assay type: physicochemical; conditions: ethanol stock 2.5 mM, room temperature, nitrogen atmosphere
From the text: The fold-stimulation (ratio to control) obtained with a compound diluted from an aged stock solution was compared to an identical dilution from a stock solution freshly prepared from the solid compound. “t1/2” is defined as the time required for the SIRT1 fold-stimulation of the compound from the aged solution to decay to one-half of that obtained from a freshly prepared solution. […] Stocks were aged by storage at room temperature, in glass vials, under a nitrogen atmosphere.

## CC(=O)Oc1cc(O)cc(/C=C/c2ccc(O)cc2)c1 [BML-221, 3,4′-Dihydroxy-5-acetoxy-trans-stilbene]
Recombinant human SIRT1
  SIRT1 stimulating activity (in words): diminished in in vitro SIRT1 activating ability
S. cerevisiae
  % change in yeast replicative lifespan relative to untreated organisms (10 μM): 165%
C. elegans
  % change in C. elegans lifespan relative to untreated organisms (100/500 μM): >100%
[1]
  solution stability relative to resveratrol: strongly increased; also recorded: vast improvement in solution stability relative to resveratrol
